Assay results reported in US7446092B2, “Glycogen synthase kinase-3 inhibitors” (Tel Aviv University Future Technology Development L.P., priority 2002, dated 2008).
One block for each compound: values may come before it. Square brackets hold non-standard residues; d marks the D form. Ends that are not written are not given here. Peptide text beside a SMILES is read from it. * marks the point of attachment. pY = N[C@@H](Cc1ccc(OP(=O)(O)O)cc1)C(=O)O; Myristoyl = CCCCCCCCCCCCCC(=O)*; pS = N[C@@H](COP(=O)(O)O)C(=O)O

Columns and labels:
GSK-3β = GSK-3β (Oryctolagus cuniculus, UniProt A0A5F9DUX8); test: In vitro GSK-3 inhibition assay (phosphorylation of PGS-1 peptide substrate); assay type: biochemical, rabbit; details: for GSK-3 inhibition (in words): in vitro, cpL803-mts tested at 0-300 μM; for Inhibitor functionality: GSK-3 inhibitor
Experimental: In vitro inhibition assays: Purified recombinant rabbit GSK-3β (Eldar-Finkelman et al., 1996) was incubated with peptide substrate PGS-1 ([…](p)EDEEE) (SEQ ID NO:15) and with a peptide inhibitor at indicated concentrations. The reaction mixture included Tris 50 mM (pH=7.3), 10 mM MgAc, ^32P[γ-ATP] (100 μM), 0.01% β-mercaptoethanol, and was incubated for 10 minutes at 30° C. Reactions were spotted on phosphocellulose paper (p81), washed with 100 mM phosphoric acid, and counted for radioactivity (as described in Eldar-Finkelman et al., 1996).

GSK-3 = target: T1, GSK-3 (Oryctolagus cuniculus, UniProt G1T8E2); test: In vitro test of peptides as GSK-3 substrates; assay type: biochemical, rabbit; details: S2(p) of p9CREB replaced
T1 construct: made in house

glycogen synthase = test: Glycogen synthase activity in HEK 293 cells; assay type: cell-based
Source text: Glycogen synthase activity in HEK 293 cells: To test the impact of the conjugates of the present invention in intact cells, the membrane preamble L803 inhibitor L803-mts (N-Myristol-GKEAPPAPPQS(p)P) (SEQ ID NO:16) and two similarly modified respective controls LE803-mts (N-Myristol-GKEAPPAPPQSEP) (SEQ ID NO:17) and LS803-mts (N-Myristol-GKEAPPAPPQSP) (SEQ ID NO:18), in which the phosphorylated serine was replaced with glutamic acid (that usually mimics a phosphorylated group) or a serine residue, respectively, were designed and synthesized.
HEK 293 cells were grown in 10 cm plates with Dulbecco's modified Eagle medium (DMEM) supplemented with 10% fetal calf serum (FCS). On the day of the experiment, cells were incubated with low glucose medium supplemented with 0.5% FCS for 1 hour, followed by the addition of the conjugate L803-mts or its respective controls LE803-mts and LS803-mts at various concentrations, for additional 2.5 hours. A vehicle control of DMSO (0.1% DMSO) was also tested. […] The reactions were then spotted on ET31 (Whatman) papers, washed with 66% ice-cold ethanol, and counted for radioactivity. Glycogen synthase assays were measured in the presence of 0.1 mM glucose-6-phosphate (G6P). […]

mouse adipocytes = test: Glucose uptake in isolated adipocytes; assay type: cell-based
Experimental: Glucose uptake in isolated adipocytes: Mice adipocytes were isolated from epididymal fat pad by digestion with 0.8 mg/ml collagenase (Worthington Biochemical) as described previously (Lawrence et al., 1977). Digested fat pads were passed through nylon mesh and cells were washed 3 times with Krebs-bicarbonate buffer (pH=7.4) containing 1% bovine serum albumin (Fraction V, Boehringer Mannheim, Germany), 10 mM HEPES (pH=7.3), 5 mM glucose and 200 nM adenosine. Cells were incubated with L803-mts or LE803-mts at indicated concentrations for 1 hour, followed by addition of 2-deoxy [^3H] glucose (0.5 μci/vial) for 10 minutes. The assay was terminated by centrifugation of cells through dinonylphthalate (ICN, USA). ^3H was thereafter quantitated by liquid scintillation analyzer (Packard). Nonspecific uptake of 2-deoxy-[^3H] glucose was determined by the addition of cytochalasin B (50 μM) 30 minutes prior to the addition of radioactive material.
In another set of experiments, adipocytes were treated with various concentrations of L803-mts 1 hour before addition of sub-optimal concentration of insulin (5 nM). Glucose uptake was determined as described above.

[1] = Glucose tolerance test in fasted C57Bl/6J mice; assay type: in vivo; details: vs control peptide
Experimental: Glucose tolerance tests: Glucose tolerance tests were performed in overnight fasted C57Bl/6J mice (12 hours). L803-mts or LE803-mts were administrated intraperitoneally (i.p.) to mice (400 nmol peptide), glucose (1 gram/kg) was injected i.p. one hour thereafter and blood samples were collected from tail vein at various time points. Blood glucose levels were immediately measured by Sugar Accutrend Sensor,(Roche, Germany)).

[2] = Forced swimming test (FST); assay type: in vivo, C57BL/6J mice; details: vs control-treated animals
Experimental: (§1) Forced Swimming Test (FST): C57BL/6J mice were housed in individual cages with free access to water in a temperature-controlled facility with a 12 hours light/dark cycle. Animals at age 14-16 weeks were used, and each experimental group consisted of randomly chosen 10-20 mice. At day one, mice were subjected to pre-FST (see below). At day two, mice were anesthetized with halothane (inhalation) and were unilaterally intracerebroventricularly injected (i.c.v., 1 μl of 25 mM stock solution) with L803-mts or a scrambled control peptide (cpL803-mts). Animals were subjected to FST once 1, 3, and 12 hours after reagents were administrated. The FST procedure used was similar to that initially described by Porsolt et al. (1977). Briefly, animals were placed at day one in a large cylinder (30 cm×45 cm) of 25° C. water for a 15-minutes period. At day two (24 hours later), treated mice were placed in the cylinder of water for a 6-minutes period. The duration of immobility was monitored during the last 4 minutes of the 6-minute test. Immobility period was defined as the time spent by the animal floating in the water without struggling and making only those movements necessary to keep its head above the water. All testing took place between 11:00 and 15:00. After completion the FST, mice were scarified, and hippocampuses were removed, frozen in liquid nitrogen, and stored at −80° C. Animal care followed the institutional animal care and used committee.

β-catenin = β-catenin levels in mouse hippocampus extracts (Western blot); assay type: in vivo
Experimental: as §1
Hippocampus extracts: Hippocampus tissue was homogenized with ice cold buffer H (50 mM β-glycerophosphate pH=7.3, 10% glycerol, 1 mM EGTA, 1 mM EDTA, 10 mM NaF, 5 mM NaPPi, 25 μg/ml leupeptin, 25 μg/ml aprotinin, 500 nM microcystine LR and 1% Triton X100). […] Equal amounts of proteins (30 μg) as determined by Bradford analysis (Bradford, […]) were boiled with Laemmli sample buffer and subjected to gel electrophoresis (10% polyacrylamide gel), transferred to nitrocellulose membranes, and immunoblotted with specific monoclonal antibodies for β-catenin (Transduction laboratories, USA).

Cdc2 = target: T2, Cdc2 (Homo sapiens, UniProt P06493); test: Effect of L803 on Cdc2 activity (histone H1 substrate); assay type: biochemical; details: L803 200 μM
T2 construct: purchased New England BioLabs (Beverly, Mass.)
Experimental: The effect of L803 (200 μM) on other protein kinases was tested by incubating Cdc2 (1 unit) with a reaction mixture similar to that described hereinabove and containing histone H1 substrate (5 μg). The reactions were boiled with SDS sample buffer, separated on gel electrophoresis and autoradiographed.

GSK-3β, sequence (A0A5F9DUX8 1-420): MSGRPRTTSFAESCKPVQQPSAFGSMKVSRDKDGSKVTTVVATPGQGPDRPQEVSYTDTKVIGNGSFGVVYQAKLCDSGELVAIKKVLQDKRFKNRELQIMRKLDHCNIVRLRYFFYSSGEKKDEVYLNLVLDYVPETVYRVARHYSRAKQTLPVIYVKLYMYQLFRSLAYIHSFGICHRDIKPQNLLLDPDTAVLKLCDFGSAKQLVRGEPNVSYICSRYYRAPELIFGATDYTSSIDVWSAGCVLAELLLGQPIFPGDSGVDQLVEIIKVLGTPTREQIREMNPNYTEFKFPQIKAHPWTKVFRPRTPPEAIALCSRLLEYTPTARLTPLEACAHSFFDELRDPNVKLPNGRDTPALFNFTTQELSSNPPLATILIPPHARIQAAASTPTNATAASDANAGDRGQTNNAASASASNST
T1 sequence (G1T8E2 1-432): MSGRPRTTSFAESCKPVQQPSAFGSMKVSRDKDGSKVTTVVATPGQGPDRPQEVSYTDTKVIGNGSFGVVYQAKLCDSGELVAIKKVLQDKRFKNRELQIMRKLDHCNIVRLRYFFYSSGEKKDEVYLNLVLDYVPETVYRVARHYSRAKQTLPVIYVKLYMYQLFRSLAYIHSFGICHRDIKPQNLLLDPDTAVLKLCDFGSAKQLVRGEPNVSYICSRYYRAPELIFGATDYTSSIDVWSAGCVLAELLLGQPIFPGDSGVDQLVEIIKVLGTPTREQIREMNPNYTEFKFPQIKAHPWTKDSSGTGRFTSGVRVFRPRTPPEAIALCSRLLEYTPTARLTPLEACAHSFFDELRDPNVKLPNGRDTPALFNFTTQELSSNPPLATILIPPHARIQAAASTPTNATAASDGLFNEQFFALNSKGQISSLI
T2 sequence (P06493 whole entry): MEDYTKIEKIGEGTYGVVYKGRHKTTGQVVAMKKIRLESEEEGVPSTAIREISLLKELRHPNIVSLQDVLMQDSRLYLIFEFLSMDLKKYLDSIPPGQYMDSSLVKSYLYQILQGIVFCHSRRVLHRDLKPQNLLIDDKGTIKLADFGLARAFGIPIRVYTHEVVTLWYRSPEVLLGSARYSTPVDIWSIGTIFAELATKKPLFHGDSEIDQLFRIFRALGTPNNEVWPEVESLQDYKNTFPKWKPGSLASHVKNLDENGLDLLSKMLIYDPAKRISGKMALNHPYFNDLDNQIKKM
T2 sequence (P14635 whole entry partner): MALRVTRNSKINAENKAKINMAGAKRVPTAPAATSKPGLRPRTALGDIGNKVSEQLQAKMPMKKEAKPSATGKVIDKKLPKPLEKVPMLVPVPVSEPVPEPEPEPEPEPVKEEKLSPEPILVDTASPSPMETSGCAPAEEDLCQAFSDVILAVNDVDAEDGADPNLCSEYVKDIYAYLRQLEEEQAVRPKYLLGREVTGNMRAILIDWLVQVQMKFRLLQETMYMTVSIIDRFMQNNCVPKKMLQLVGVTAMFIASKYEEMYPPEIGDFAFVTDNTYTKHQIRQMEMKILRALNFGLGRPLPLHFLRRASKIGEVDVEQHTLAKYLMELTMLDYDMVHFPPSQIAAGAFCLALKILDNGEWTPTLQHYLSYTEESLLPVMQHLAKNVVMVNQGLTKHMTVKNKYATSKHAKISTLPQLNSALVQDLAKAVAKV

- GSK-3 inhibition (in words) (GSK-3β): do not inhibit
Compound: N-Myristol-GKEAPPAPPQSP (Myristoyl-GKEAPPAPPQSP) [LS803-mts, control conjugate, phosphorylated serine replaced with serine, reference compound]

- GSK-3 inhibition (in words) (GSK-3β): do not inhibit
Compound: N-Myristol-GKEAPPAPPQSEP (Myristoyl-GKEAPPAPPQSEP) [LE803-mts, control conjugate, phosphorylated serine replaced with glutamic acid, reference compound]

Compound: ILSRPPY(p)YR (ILSRPP[pY]YR; also: phosphotyrosine, Y7 or Y8 (written PPY(p)YR)) [Peptide 4]
- Phosphorylation by GSK-3 (in words) (GSK-3): eliminated the capacity of GSK-3 to phosphorylate these peptides

- GSK-3 inhibition (in words) (GSK-3β): eliminated the inhibitory capacity
Compound: CC[C@H](C)[C@H](N)C(=O)N[C@@H](CC(C)C)C(=O)N[C@@H](C)C(=O)N[C@@H](CCCNC(=N)N)C(=O)N[C@@H](CCCNC(=N)N)C(=O)N1CCC[C@H]1C(=O)N[C@@H](COP(=O)(O)O)C(=O)N[C@@H](Cc1ccc(O)cc1)C(=O)N[C@@H](CCCNC(=N)N)C(=O)O [Peptide 6, ILARRPS(p)YR] (H-ILARRP[pS]YR-OH)
- Inhibitor functionality (GSK-3β): * (weak inhibition activity (IC50 > 800 μM))

Compound: CCCCCCCCCCCCCC(=O)NCC(=O)N[C@@H](CCCCN)C(=O)N[C@@H](CCC(=O)O)C(=O)N[C@@H](C)C(=O)N1CCC[C@H]1C(=O)N1CCC[C@H]1C(=O)N[C@@H](C)C(=O)N1CCC[C@H]1C(=O)N1CCC[C@H]1C(=O)N[C@@H](CCC(N)=O)C(=O)N[C@@H](COP(=O)(O)O)C(=O)N1CCC[C@H]1C(=O)O [Peptide L803-mts, N-Myristol-GKEAPPAPPQS(p)P] (Myristoyl-GKEAPPAPPQ[pS]P-OH; C-terminus assumed)
- Concentrations inhibiting endogenous GSK-3 (glycogen synthase): 10 to 40 µM
- Increase of glycogen synthase activity (glycogen synthase; 2.5 hours, compared with cells treated with LE803-mts or LS803-mts): 2.5 fold
- Effect on insulin-induced glucose uptake (in words) (mouse adipocytes; L803-mts 1-10 μM followed by sub-optimal insulin (5 nM)): additive effect
- Increase of 2-deoxyglucose incorporation (mouse adipocytes; mouse adipocytes, no insulin, compared with cells treated with LE803-mts or LS803-mts): approximately 2.5 fold
- Reduction in the blood glucose peak and in glucose levels 1 and 2 hours after glucose ([1]; 400 nmol i.p. one hour before glucose 1 gram/kg): 20%
- Glucose tolerance (in words) ([1]; 400 nmol i.p.): better glucose tolerance
- Shortening of immobility time ([2]; FST 1 hour after i.c.v. injection): 37%±3.7%
- Shortening of immobility time ([2]; FST 3 hours after i.c.v. injection): 44%±5.7%
- Shortening of immobility time ([2]; FST 12 hours after i.c.v. injection): 16%±0.6%
- Increase in β-catenin levels (β-catenin; 1 hour after i.c.v. L803-mts): 20%
- Increase in β-catenin levels (β-catenin; 3 hours after i.c.v. L803-mts): 30%
- Increase in β-catenin levels (β-catenin; 12 hours post administration): 50%

Compound: C[C@H](NC(=O)[C@H](CCC(=O)O)NC(=O)[C@@H](N)CCCCN)C(=O)N1CCC[C@H]1C(=O)N1CCC[C@H]1C(=O)N[C@@H](C)C(=O)N1CCC[C@H]1C(=O)N1CCC[C@H]1C(=O)N[C@@H](CCC(N)=O)C(=O)N[C@@H](COP(=O)(O)O)C(=O)N1CCC[C@H]1C(=O)O [Peptide 9, KEAPPAPPQS(p)P] (H-KEAPPAPPQ[pS]P-OH; N-terminus and C-terminus assumed)
- Inhibition of cdc2 (in words) (Cdc2): not inhibited

Compound: insulin [reference compound]
- Maximum stimulation of glucose uptake by insulin (mouse adipocytes; mouse adipocytes, insulin 10 nM, data not shown): 3 fold

- GSK-3 inhibition (in words) (GSK-3β): inactive inhibitors
Compound: KEEPPAPPQEP [Peptide 11]

Compound: C[C@H](NC(=O)[C@@H]1CCCN1)C(=O)N1CCC[C@H]1C(=O)N1CCC[C@H]1C(=O)N[C@@H](CCC(N)=O)C(=O)N[C@@H](COP(=O)(O)O)C(=O)N1CCC[C@H]1C(=O)O [Peptide 12, PAPPQS(p)P] (H-PAPPQ[pS]P-OH)
- Inhibitor functionality (GSK-3β): * (weak inhibition activity (IC50 > 800 μM))

- GSK-3 inhibition (in words) (GSK-3β): inactive inhibitors
Compound: KEEPPAPPQSP [Peptide 10]

Compound: ILSRPPEYR [Peptide 3]
- Phosphorylation by GSK-3 (in words) (GSK-3): eliminated the capacity of GSK-3 to phosphorylate these peptides
